The subject of one test is Alternaria brassicae. As to the kind of experiment: In vivo test on Alternaria brassicae (leaf spot of crucifers), preventive spray on radish plants. Particulars: under these conditions (radish plants, comparison compound of prior art). How it is done:
The active ingredient tested is prepared by homogenisation in DMSO (5% of the final volume), acetone (10% of the final volume) and tween 80 10% (5 μl/mg active ingredient). Radish plants (Pernot variety) in starter cups, sown on a 50/50 peat soil-pozzolana substrate and grown at 18-20° C., are treated at the cotyledon stage by spraying with the aqueous suspension described above. Plants, used as controls, are treated with an aqueous solution not containing the active material. After 24 hours, the plants are contaminated by spraying them with an aqueous suspension of Alternaria brassicae spores (40,000 spores per cm^3). The spores are collected from a 12 to 13 days-old culture. The contaminated radish plants are incubated for 6-7 days at about 18° C., under a humid atmosphere. Grading is carried out 6 to 7 days after the contamination, in comparison with the control plants. Under these conditions, good (at least 70%) or total protection is observed at a dose of 500 ppm with the following compounds: 1-2, 2-2, 2-5, 3-2, 3-5, 4-3, 4-4, 4-5, 4-6, 5-4, 5-5, 5-7, 6-1, 7-1, 7-3, 7-4, 7-6, 9-3, 10-3, 10-4, 5, 10-6, 10-8, 11-1, 11-2, 12-2, 13-1, 13-3, 13-5, 15-2, 15-3, 16-4, 19-1, 20-1, 21-1, 21-2, 22-2, 22-3, 23-1, 24-1, 24-2, 25-1, 25-3, 26-2, 27-1, 28-2, 30-1, 30-2, 31-1, 32-1 and 33-2.

The subject of another test is Botrytis cinerea. In words: In vivo test on Botrytis cinerea (cucumber grey mould), preventive spray on cucumber plants. The settings on record: under these conditions (cucumber plants, comparison compounds of prior art). How it is done:
(§1) The active ingredient tested is prepared by homogenisation in DMSO (5% of the final volume), acetone (10% of the final volume) and tween 80 10% (5 μl/mg active ingredient).
Cucumber plants (Marketer variety) in starter cups, sown on a 50/50 peat soil-pozzolana substrate and grown at 18-20° C., are treated at the cotyledon Z11 stage by spraying with the aqueous suspension described above. Plants, used as controls, are treated with an aqueous solution not containing the active material.
After 24 hours, the plants are contaminated by depositing drops of an aqueous suspension of Botrytis cinerea spores (150,000 spores per ml) on upper surface of the leaves. The spores are collected from a 15-day-old culture and are suspended in a nutrient solution composed of: • 20 g/L of gelatin • 50 g/L of cane sugar • 2 g/L of NH4NO3 • 1 g/L of KH2PO4
The contaminated cucumber plants are settled for 5/7 days in a climatic room at 15-11° C. (day/night) and at 80% relative humidity.

The test system of the next test is Sphaerotheca fuliginea. In words: In vivo test on Sphaerotheca fuliginea (powdery mildew), preventive spray on gherkin plants. The settings on record: under these conditions (gherkin plants, comparison compounds of prior art). How it is done: as §1
Gherkin plants (Vert petit de Paris variety) in starter cups, sown on a 50/50 peat soil-pozzolana substrate and grown at 20° C./23° C., are treated at cotyledon Z11 stage by spraying with the aqueous suspension described above. Plants, used as controls, are treated with an aqueous solution not containing the active material.
After 24 hours, the plants are contaminated by spraying them with an aqueous suspension of Sphaerotheca fuliginea spores (100 000 spores per ml). The spores are collected from a contaminated plants. The contaminated gerkhin plants are incubated at about 20° C./25° C. and at 60/70% relative humidity.

Another test concerns Pyrenophora teres. As to the kind of experiment: In vivo test on Pyrenophora teres (barley net blotch), preventive spray on barley plants. Particulars: under these conditions (barley plants, comparison compound of prior art). How it is done:
as §1
Barley plants (Express variety) in starter cups, sown on a 50/50 peat soil-pozzolana substrate and grown at 12° C., are treated at the 1-leaf stage (10 cm tall) by spraying with the aqueous suspension described above. Plants, used as controls, are treated with an aqueous solution not containing the active material.
After 24 hours, the plants are contaminated by spraying them with an aqueous suspension of Pyrenophora teres spores (12,000 spores per ml). The spores are collected from a 12-day-old culture. The contaminated barley plants are incubated for 24 hours at about 20° C. and at 100% relative humidity, and then for 12 days at 80% relative humidity.

Data on three compounds can be found in patent publication US8148538B2, “N-alkyl-heterocyclyl carboxamide derivatives” (Bayer Cropscience AG, priority 2005, dated 2012).

For `CCCCCCCCNC(=O)c1snc(Cl)c1Cl` [4-dichloro-N-octylisothiazol-5-carboxamide], the “activity against Alternaria brassicae” value in the test on Alternaria brassicae is listed as “did not show any activity”. In addition, the “activity against Botrytis cinerea” value with Botrytis cinerea is given as “did not show any activity”.

Consider `Cc1nnsc1C(=O)NC(C)C` [N-isopropyl-4-methyl-1,2,3-thiadiazole-5-carboxamide], for which, in the test on Sphaerotheca fuliginea, the “activity against Sphaerotheca fuliginea” value is recorded as “did not show any activity”. Moreover, the “activity against Botrytis cinerea” value with Botrytis cinerea was “did not show any activity”.

Turning to `CCC(C)NC(=O)c1cc(C)oc1C` (stereo not shown) [N-sec-butyl-2,5-dimethyl-3-furamide], in the test with Sphaerotheca fuliginea, the “activity against Sphaerotheca fuliginea” value is listed as “did not show any activity”. For the same compound, the “activity against Pyrenophora teres” value with Pyrenophora teres was “did not show any activity”. Further, the “activity against Botrytis cinerea” value in the test on Botrytis cinerea was “did not show any activity”.
